Measurements reported in patent US20250120946A1, “USE OF PYRROLE COMPOUND IN TREATMENT OF TUMORS” (NANJING SHIJIANG MEDICINE TECHNOLOGY CO., LTD, priority 2021, published 2025).
Read-outs that look alike come from different tables or passages of the source. One block for each compound: values may come before it.

Columns and labels:
[1] = tested on: CFPAC-1 (human pancreatic cancer cell); assay: Cell viability, Promega CellTiter-Glo kit (intracellular ATP), CFPAC-1; type: cell-based; settings: insensitive group, 3-4 days of culture, n=3, read-out: IC50 (50% inhibiting concentration), inhibitory effect on cell line
Protocol: (§1) In the experiment, the IC50 value of sunitinib or sunitinib malate on various tumor cell lines was determined.
(§2) After 3-4 days of culture, the relevant IC50 (50% inhibiting concentration) was measured (n=3).

[2] = tested on: SF126 (human glioblastoma multiforme cell); assay: Cell viability, Promega CellTiter-Glo kit (intracellular ATP), SF126; type: cell-based; settings: insensitive group, 3-4 days of culture, n=3, read-out: IC50 (50% inhibiting concentration), inhibitory effect on cell line
Protocol: as §1, §2

[3] = tested on: G-401 (human renal carcinoma Wilms cell); assay: Cell viability, Promega CellTiter-Glo kit (intracellular ATP), G-401; type: cell-based; settings: sensitive group, 3-4 days of culture, n=3, read-out: IC50 (50% inhibiting concentration), inhibitory effect on cell line
Protocol: as §1, §2

[4] = tested on: NCI-H82 (human small cell lung cancer cell); assay: Cell viability, Promega CellTiter-Glo kit (intracellular ATP), NCI-H82; type: cell-based; settings: sensitive group, 3-4 days of culture, n=3, read-out: IC50 (50% inhibiting concentration), inhibitory effect on cell line
Protocol: as §1

[5] = tested on: control NCI-H82 cell (NCI-H82 (Con)); assay: Cell viability, Promega CellTiter-Glo kit, control NCI-H82 cell; type: cell-based, human; settings: n=3
From the text: (§3) The NNMT protein-overexpressing NCI-H82 cell (NCI-H82 (ov-NNMT)) was obtained by inserting the NNMT gene into NCI-H82 cell using a viral vector. The control NCI-H82 cell (NCI-H82 (Con)) was obtained by transfecting NCI-H82 cell with empty virus vector without carrying NNMT gene.

[6] = tested on: MDA-MB-453 (breast cancer cell); assay: Cell viability, Promega CellTiter-Glo kit (intracellular ATP), MDA-MB-453; settings: sensitive group, 3-4 days of culture, n=3
[7] = tested on: NNMT protein-overexpressing NCI-H82 cell (NCI-H82 (ov-NNMT)); assay: Cell viability, Promega CellTiter-Glo kit, NNMT protein-overexpressing NCI-H82 cell; type: cell-based, human; settings: n=3
From the text: as §3

[8] = tested on: SW48 (human colon adenocarcinoma cell); assay: Cell viability, Promega CellTiter-Glo kit (intracellular ATP), SW48; type: cell-based; settings: sensitive group, 3-4 days of culture, n=3, read-out: IC50 (50% inhibiting concentration), inhibitory effect on cell line
Protocol: as §1, §2

[9] = tested on: GB-1 (human glioblastoma cell); assay: Cell viability, Promega CellTiter-Glo kit (intracellular ATP), GB-1; type: cell-based; settings: insensitive group, 3-4 days of culture, n=3, read-out: IC50 (50% inhibiting concentration), inhibitory effect on cell line
Protocol: as §1, §2

[10] = tested on: WSU-DLCL2 (human diffuse large B-cell lymphoma); assay: Cell viability, Promega CellTiter-Glo kit (intracellular ATP), WSU-DLCL2; type: cell-based; settings: sensitive group, 3-4 days of culture, n=3, read-out: IC50 (50% inhibiting concentration), inhibitory effect on cell line
Protocol: as §1, §2

[11] = tested on: 786-O (clear cell renal cell adenocarcinoma cell); assay: Cell viability, Promega CellTiter-Glo kit (intracellular ATP), 786-O; type: cell-based, human; settings: insensitive group, 3-4 days of culture, n=3, read-out: IC50 (50% inhibiting concentration), inhibitory effect on cell line
Protocol: as §1, §2

IC50 ([1]; CFPAC-1): 16.8 µM | IC50 ([2]; SF126): 12.4 µM | IC50 ([3]; G-401): 2500 nM | IC50 ([4]; NCI-H82): 1290 nM | IC50 ([5]; NCI-H82 transfected with empty virus vector without NNMT gene): 1210 nM | IC50 ([6]; read-out: IC50 (50% inhibiting concentration), inhibitory effect on cell line, MDA-MB-453): 2330 nM | IC50 ([7]; NCI-H82 with NNMT gene inserted via viral vector (NNMT protein overexpressed)): 3.31 µM | IC50 ([8]; SW48): 1470 nM | IC50 [9]: 12.1 µM | IC50 ([10]; WSU-DLCL2): 1110 nM | IC50 ([11]; 786-O): 17.8 µM
Compound: CCN(CC)CCNC(=O)c1c(C)[nH]c(/C=C2\C(=O)Nc3ccc(F)cc32)c1C [Sunitinib malate, sunitinib malate]

IC50 ([1]; Homo sapiens, CFPAC-1, CFPAC-1): 19.6 µM | IC50 ([2]; Homo sapiens, SF-126, SF126): 11.4 µM | IC50 ([3]; Homo sapiens, G-401, G-401): 2910 nM | IC50 ([4]; Homo sapiens, NCI-H82, NCI-H82): 1300 nM | IC50 ([5]; Homo sapiens, NCI-H82, NCI-H82 transfected with empty virus vector without NNMT gene): 1240 nM | IC50 ([6]; Homo sapiens, MDA-MB-453, read-out: IC50 (50% inhibiting concentration), inhibitory effect on cell line, MDA-MB-453): 2470 nM | IC50 ([7]; Homo sapiens, NCI-H82, NCI-H82 with NNMT gene inserted via viral vector (NNMT protein overexpressed)): 2.96 µM | IC50 ([8]; Homo sapiens, SW48, SW48): 1150 nM | IC50 ([9]; Homo sapiens): 10.7 µM | IC50 ([10]; Homo sapiens, WSUDLCL2, WSU-DLCL2): 1340 nM | IC50 ([11]; Homo sapiens, 786-0, 786-O): 23.7 µM
Compound: CCN(CC)CCNC(=O)c1c(C)[nH]c(/C=C2\C(=O)Nc3ccc(F)cc32)c1C [Sunitinib, sunitinib]
